Reference: publication PMC9060145 (Skin Health and Disease, 2021)

Legend:
CYP2C8 [1] = target: T1, CYP2C8 (Homo sapiens, UniProt P10632); assay: Qualitative CYP2C8 screening, Vivid CYP2C8 Green kit, fluorimetry; format: biochemical; parameters: purchased Life Technologies; host or cells: Baculosomes; conditions: recombinant CYP2C8 Baculosomes, probe Vivid DBOMF, 1 µM (1000 nM) compound, substrate DBOMF
T1 sequence (P10632 1-490): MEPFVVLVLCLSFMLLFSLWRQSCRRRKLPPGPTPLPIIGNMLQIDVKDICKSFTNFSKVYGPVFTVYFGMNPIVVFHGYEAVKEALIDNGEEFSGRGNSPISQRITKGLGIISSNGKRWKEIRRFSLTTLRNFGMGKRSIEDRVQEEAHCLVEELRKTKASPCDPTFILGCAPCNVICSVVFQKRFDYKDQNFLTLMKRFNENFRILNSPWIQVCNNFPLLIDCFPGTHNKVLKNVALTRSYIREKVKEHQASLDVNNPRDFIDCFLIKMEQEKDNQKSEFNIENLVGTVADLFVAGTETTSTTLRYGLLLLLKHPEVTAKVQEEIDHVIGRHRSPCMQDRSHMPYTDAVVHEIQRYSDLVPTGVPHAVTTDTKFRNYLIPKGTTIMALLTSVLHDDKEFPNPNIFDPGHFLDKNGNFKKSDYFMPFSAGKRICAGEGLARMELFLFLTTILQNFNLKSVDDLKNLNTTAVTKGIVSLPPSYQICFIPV
Description: CYP450 inhibition assays (excluding CYP19 and 1 µM CYP2C8) were performed as previously described.[31] Substrate metabolite formation was measured by HPLC‐MS/MS. Percent of control activity was determined by comparing metabolite peak areas with and without test compound. Qualitative screening of CYP2C8 (1 µM) and CYP19 is described in detail in Supporting Information. Reference compound IC50 values were determined by non‐linear regression analysis using Hill equation curve fitting.
A kinetic reaction was carried out for CYP2C8 screening in triplicate according to the Vivid? CYP450 Screening Kit manual protocol (MAN0003095). Briefly, a master pre-mix composed of CYP2C8 Baculosomes®, regeneration system of human P450 reductase/human cytochrome b5, and reaction buffer was prepared before adding 50 µL to each well in a black 96-well plate. Test compounds, positive inhibition control, and solvent controls were prepared as a 2.5X concentration with DMSO in reaction buffer of which 40 µL was dispensed into the 96-well plate. […] The test samples were pre-incubated at 37 °C for 15 min in the fluorescent microplate reader before adding a 10 µL mixture of substrate and NADP^+. Immediately, the plate was read at 2 min intervals over a 30 min time period at 37 °C. The raw data in relative fluorescent units (RFU) was analyzed according to the kinetic assay mode as outlined in the published protocol.

CYP2C8 [2] = target: T1, CYP2C8; assay: CYP450 inhibition assay, human liver microsomes; format: biochemical; parameters: from tissue; host or cells: human liver microsomes (per the earlier reading and the cited method); conditions: substrate paclitaxel

CC(C)(O)c1ccccc1CC[C@@H](SCC1(CC(=O)O)CC1)c1cccc(/C=C/c2ccc3ccc(Cl)cc3n2)c1 [montelukast]
inhibition at 30 min, 1 µM (CYP2C8 [1]): 100%
nH (hill coefficient) (CYP2C8 [2]): 0.6
